The text below walks through data of US20250302815A1, “PROTEIN TYROSINE PHOSPHATASE TARGETING LIGANDS” (CALICO LIFE SCIENCES LLC, priority 2021, published 2025).

Assay [1] deals with T1, PTPN2 (HiBIT-PTPN2 in 293T.109 cells) (Homo sapiens, UniProt P17706).
T1 construct: expressed in transfected cells; host or cells: 293T.109 (293T WT from ATCC)
T1 sequence (P17706 1-415): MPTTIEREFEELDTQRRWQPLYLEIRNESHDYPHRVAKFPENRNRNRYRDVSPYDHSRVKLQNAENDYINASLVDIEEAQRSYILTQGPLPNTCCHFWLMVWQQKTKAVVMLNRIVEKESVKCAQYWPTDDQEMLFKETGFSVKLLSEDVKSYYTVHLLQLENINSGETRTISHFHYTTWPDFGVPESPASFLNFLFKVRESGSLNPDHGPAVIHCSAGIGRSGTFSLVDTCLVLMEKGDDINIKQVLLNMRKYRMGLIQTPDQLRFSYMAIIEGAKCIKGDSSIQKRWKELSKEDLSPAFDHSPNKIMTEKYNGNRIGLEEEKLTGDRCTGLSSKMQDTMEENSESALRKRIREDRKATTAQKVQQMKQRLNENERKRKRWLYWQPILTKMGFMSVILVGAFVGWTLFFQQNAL
Kind of assay: HiBiT Degradation 293T.109 PTPN2 (Nano-Glo HiBiT Lytic Assay). It is filed as cell-based. The following applies: 24.0 hours. The procedure, abridged:
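293T.109 cells with ectopic N-terminal HiBiT-tagged PTPN2 (5000/well) exposed to compounds for 24 h at 37 °C, 5% CO2; 11-point half-log titration from 10 μM top, duplicates. Remaining HiBiT-PTPN2 read as luminescence with Nano-Glo HiBiT lytic reagent, normalised to untreated cells (0%) and reagent-free wells.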

The next assay has as its target T2, PTPN2 (B16F10.4 cells) (Mus musculus, UniProt Q06180).
T2 construct: HiBiT; host or cells: B16F10.4
T2 sequence (Q06180 1-406): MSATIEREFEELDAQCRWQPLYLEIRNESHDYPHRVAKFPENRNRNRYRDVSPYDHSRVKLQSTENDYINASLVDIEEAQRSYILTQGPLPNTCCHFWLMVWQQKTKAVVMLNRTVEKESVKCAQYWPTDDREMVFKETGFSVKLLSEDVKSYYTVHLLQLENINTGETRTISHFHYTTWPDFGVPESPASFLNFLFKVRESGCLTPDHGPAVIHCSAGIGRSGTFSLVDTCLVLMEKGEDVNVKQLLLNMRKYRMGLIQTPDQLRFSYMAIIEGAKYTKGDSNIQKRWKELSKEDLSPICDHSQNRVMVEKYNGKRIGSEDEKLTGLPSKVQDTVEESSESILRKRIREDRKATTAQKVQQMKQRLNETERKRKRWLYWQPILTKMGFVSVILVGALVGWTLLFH
Briefly: HiBiT Degradation B16F10.4 PTPN2. Type of assay: cell-based. The settings on record: 24.0 hours. A general note: With HiBiT, luminescence reflects the tagged protein that the partner subunit can reach.

As usually defined, the DC50 is the midpoint of the concentration-degradation curve. The low end stands for degradation at low concentration, the high end for degradation only at high concentration.

`O=C(O)COc1c(C(=O)O)sc(-c2cccc(N[C@@H]3CCN(S(=O)(=O)Cc4cccc(NC(=O)N5CCC(c6ccc7c8c(cccc68)C(=O)N7C6CCC(=O)NC6=O)CC5)c4)C4(CC4)C3)c2)c1Cl` (stereo partly drawn) [Example 231, 3-(carboxymethoxy)-4-chloro-5-(3-(((7R)-4-((3-(4-(1-(2,6-dioxopiperidin-3-yl)-2-oxo-1,2-dihydrobenzo[cd]indol-6-yl)piperidine-1-carboxamido)benzyl)sulfonyl)-4-azaspiro[2.5]octan-7-yl)amino)phenyl)thiophene-2-carboxylic acid]: the half-maximal degradation concentration (DC50) in assay [1] is 50 to 200 nM; on PTPN2 (B16F10.4 cells), below 50 nM.
Turning to `Cn1c(=O)n(C2CCC(=O)NC2=O)c2ccc(C3CCN(C(=O)Nc4cccc(CS(=O)(=O)N5CC[C@H](Nc6cccc(-c7sc(C(=O)O)c(OCC(=O)O)c7Cl)c6)CC5(C)C)c4)CC3)cc21` (stereo partly drawn) [Example 60, 3-(carboxymethoxy)-4-chloro-5-(3-(((4S)-1-((3-(4-(1-(2,6-dioxopiperidin-3-yl)-3-methyl-2-oxo-2,3-dihydro-1H-benzo[d]imidazol-5-yl)piperidine-1-carboxamido)benzyl)sulfonyl)-2,2-dimethylpiperidin-4-yl)amino)phenyl)thiophene-2-carboxylic acid], the DC50 in assay [1] was 50 to 200 nM; on PTPN2 (B16F10.4 cells) it was below 50 nM.
Consider `Cn1c(=O)n(C2CCC(=O)NC2=O)c2ccc([C@H]3CC[C@@H](C(=O)Nc4cccc(CS(=O)(=O)N5CC[C@H](Nc6cccc(-c7sc(C(=O)O)c(OCC(=O)O)c7Cl)c6)CC5(C)C)c4)CC3)cc21` (stereo partly drawn) [Example 139, 3-(carboxymethoxy)-4-chloro-5-(3-(((4S)-1-((3-((1s,4R)-4-(1-(2,6-dioxopiperidin-3-yl)-3-methyl-2-oxo-2,3-dihydro-1H-benzo[d]imidazol-5-yl)cyclohexane-1-carboxamido)benzyl)sulfonyl)-2,2-dimethylpiperidin-4-yl)amino)phenyl)thiophene-2-carboxylic acid], for which the DC50 in assay [1] was below 50 nM; at PTPN2 (B16F10.4 cells), 50 to 200 nM.
In the case of `CC1(C)C[C@@H](Nc2cccc(-c3sc(C(=O)O)c(OCC(=O)O)c3Cl)c2)CCN1S(=O)(=O)Cc1cccc(NC(=O)NCCC2CCN(c3ccc4c5c(cccc35)C(=O)N4C3CCC(=O)NC3=O)CC2)c1` (stereo partly drawn) [Example 219, 3-(carboxymethoxy)-4-chloro-5-(3-(((4S)-1-((3-(3-(2-(1-(1-(2,6-dioxopiperidin-3-yl)-2-oxo-1,2-dihydrobenzo[cd]indol-6-yl)piperidin-4-yl)ethyl)ureido)benzyl)sulfonyl)-2,2-dimethylpiperidin-4-yl)amino)phenyl)thiophene-2-carboxylic acid], the DC50 was 50 to 200 nM in assay [1] and below 50 nM at PTPN2 (B16F10.4 cells).
The like results for `Cn1c(=O)n(C2CCC(=O)NC2=O)c2ccc(C3CCN(C(=O)Nc4cccc(CS(=O)(=O)N5CCC(Nc6cccc(-c7sc(C(=O)O)c(OCC(=O)O)c7Cl)c6F)CC5)c4)CC3)cc21` (stereo not shown) [Example 123, 3-(carboxymethoxy)-4-chloro-5-[3-[[1-[[3-[[4-[1-(2,6-dioxo-3-piperidyl)-3-methyl-2-oxo-benzimidazol-5-yl]piperidine-1-carbonyl]amino]phenyl]methylsulfonyl]-4-piperidyl]amino]-2-fluoro-phenyl]thiophene-2-carboxylic acid] were, in that order, 50 to 200 nM and 50 to 200 nM.
The like results for `CCn1nc(C2CCC(=O)NC2=O)c2ccc(C3CCN(C(=O)Nc4cccc(CS(=O)(=O)N5CC[C@H](Nc6cccc(-c7sc(C(=O)O)c(OCC(=O)O)c7Cl)c6)CC5(C)C)c4)CC3(F)F)cc21` (stereo partly drawn) [Example 200, 3-(carboxymethoxy)-4-chloro-5-[3-[[(4S)-1-[[3-[[4-[3-(2,6-dioxo-3-piperidyl)-1-ethyl-indazol-6-yl]-3,3-difluoro-piperidine-1-carbonyl]amino]phenyl]methylsulfonyl]-2,2-dimethyl-4-piperidyl]amino]phenyl]thiophene-2-carboxylic acid] were, in that order, 50 to 200 nM and 50 to 200 nM.
In the case of `CC1(C)C[C@@H](Nc2cccc(-c3sc(C(=O)O)c(OCC(=O)O)c3Cl)c2)CCN1S(=O)(=O)Cc1cccc(NC(=O)[C@H]2CC[C@H](c3ccc4c5c(cccc53)C(=O)N4C3CCC(=O)NC3=O)CC2)c1` (stereo partly drawn) [Example 165, 3-(carboxymethoxy)-4-chloro-5-(3-(((4S)-1-((3-((1r,4S)-4-(1-(2,6-dioxopiperidin-3-yl)-2-oxo-1,2-dihydrobenzo[cd]indol-6-yl)cyclohexane-1-carboxamido)benzyl)sulfonyl)-2,2-dimethylpiperidin-4-yl)amino)phenyl)thiophene-2-carboxylic acid], the DC50 (in assay [1]; at PTPN2 (B16F10.4 cells)) was below 50 nM throughout.
For the compound `CC1(C)CC(Nc2cccc(-c3sc(C(=O)O)c(OCC(=O)O)c3Cl)c2F)CCN1S(=O)(=O)Cc1ccc(F)c(NC(=O)C2CN(C(=O)CNc3cccc4c3CN(C3CCC(=O)NC3=O)C4=O)C2)c1` (stereo not shown) [Example 146, 3-(carboxymethoxy)-4-chloro-5-[3-[[1-[[3-[[1-[2-[[2-(2,6-dioxo-3-piperidyl)-1-oxo-isoindolin-4-yl]amino]acetyl]azetidine-3-carbonyl]amino]-4-fluoro-phenyl]methylsulfonyl]-2,2-dimethyl-4-piperidyl]amino]-2-fluoro-phenyl]thiophene-2-carboxylic acid], the DC50 in assay [1] is below 50 nM; at PTPN2 (B16F10.4 cells) it was 200 to 1000 nM.
In the case of `O=C(O)COc1c(C(=O)O)sc(-c2cccc(NC3CCN(S(=O)(=O)Cc4cccc(NC(=O)CCn5cc(CNc6cccc7c6CN(C6CCC(=O)NC6=O)C7=O)cn5)c4)CC3)c2)c1Cl` (stereo not shown) [Example 38, 3-(carboxymethoxy)-4-chloro-5-[3-[[1-[[3-[3-[4-[[[2-(2,6-dioxo-3-piperidyl)-1-oxo-isoindolin-4-yl]amino]methyl]pyrazol-1-yl]propanoylamino]phenyl]methylsulfonyl]-4-piperidyl]amino]phenyl]thiophene-2-carboxylic acid], the DC50 in assay [1] was 200 to 1000 nM; at PTPN2 (B16F10.4 cells) it was at least 1000 nM.
Take `CC1(C)C[C@@H](Nc2cccc(-c3sc(C(=O)O)c(OCC(=O)O)c3Cl)c2)CCN1S(=O)(=O)Cc1cccc(NC(=O)CCC(=O)NCc2ccc3c4c(cccc24)C(=O)N3C2CCC(=O)NC2=O)c1` (stereo partly drawn) [Example 220, 3-(carboxymethoxy)-4-chloro-5-(3-(((4S)-1-((3-(4-(((1-(2,6-dioxopiperidin-3-yl)-2-oxo-1,2-dihydrobenzo[cd]indol-6-yl)methyl)amino)-4-oxobutanamido)benzyl)sulfonyl)-2,2-dimethylpiperidin-4-yl)amino)phenyl)thiophene-2-carboxylic acid]: the DC50 (in assay [1]; on PTPN2 (B16F10.4 cells)) was 50 to 200 nM in each case.
Consider `CC(C)n1c(=O)n(C2CCC(=O)NC2=O)c2ccc(C3CCN(C(=O)Nc4cccc(CS(=O)(=O)N5CC[C@H](Nc6cccc(-c7sc(C(=O)O)c(OCC(=O)O)c7Cl)c6)CC5(C)C)c4)CC3)cc21` (stereo partly shown) [Example 137], for which the 50% degradation concentration (DC50) (in assay [1]; on PTPN2 (B16F10.4 cells)) was 50 to 200 nM each time.
In the case of `Cn1c(=O)n(C2CCC(=O)NC2=O)c2ccc(Nc3ccc(C(=O)Nc4cccc(CS(=O)(=O)N5CC[C@H](Nc6cccc(-c7sc(C(=O)O)c(OCC(=O)O)c7Cl)c6)CC5(C)C)c4)cc3)cc21` (stereo partly shown) [Example 144], the values for the DC50 (in assay [1]; at PTPN2 (B16F10.4 cells)) were below 50 nM and 50 to 200 nM, respectively.
Take `CN(C(=O)CCN1CCC(Nc2cccc3c2CN(C2CCC(=O)NC2=O)C3=O)CC1)c1cccc(CS(=O)(=O)N2CCC(Nc3cccc(-c4sc(C(=O)O)c(OCC(=O)O)c4Cl)c3)CC2(C)C)c1` (stereo not shown) [Example 71, 3-(carboxymethoxy)-4-chloro-5-(3-((1-((3-(3-(4-((2-(2,6-dioxopiperidin-3-yl)-1-oxoisoindolin-4-yl)amino)piperidin-1-yl)-N-methylpropanamido)benzyl)sulfonyl)-2,2-dimethylpiperidin-4-yl)amino)phenyl)thiophene-2-carboxylic acid]: the values for the DC50 (in assay [1]; on PTPN2 (B16F10.4 cells)) were 50 to 200 nM and at least 1000 nM, respectively.
In the case of `CC1(C)C[C@@H](Nc2cccc(-c3sc(C(=O)O)c(OCC(=O)O)c3Cl)c2)CCN1S(=O)(=O)Cc1cccc(NC(=O)CCn2cc(CNc3cccc4c3C(=O)N(C3CCC(=O)NC3=O)C4=O)nn2)c1` (stereo partly drawn) [Example 13, 3-(carboxymethoxy)-4-chloro-5-(3-(((4S)-1-((3-(3-(4-(((2-(2,6-dioxopiperidin-3-yl)-1,3-dioxoisoindolin-4-yl)amino)methyl)-1H-1,2,3-triazol-1-yl)propanamido)benzyl)sulfonyl)-2,2-dimethylpiperidin-4-yl)amino)phenyl)thiophene-2-carboxylic acid], the DC50 (in assay [1]; at PTPN2 (B16F10.4 cells)) was 200 to 1000 nM in each case.
